Data set [1] concerns the target T1, human c-Mpl-introduced Ba/F3 cell (Homo sapiens, UniProt P40238).
T1 construct: expressed in transfected cells
T1 sequence (P40238 26-635): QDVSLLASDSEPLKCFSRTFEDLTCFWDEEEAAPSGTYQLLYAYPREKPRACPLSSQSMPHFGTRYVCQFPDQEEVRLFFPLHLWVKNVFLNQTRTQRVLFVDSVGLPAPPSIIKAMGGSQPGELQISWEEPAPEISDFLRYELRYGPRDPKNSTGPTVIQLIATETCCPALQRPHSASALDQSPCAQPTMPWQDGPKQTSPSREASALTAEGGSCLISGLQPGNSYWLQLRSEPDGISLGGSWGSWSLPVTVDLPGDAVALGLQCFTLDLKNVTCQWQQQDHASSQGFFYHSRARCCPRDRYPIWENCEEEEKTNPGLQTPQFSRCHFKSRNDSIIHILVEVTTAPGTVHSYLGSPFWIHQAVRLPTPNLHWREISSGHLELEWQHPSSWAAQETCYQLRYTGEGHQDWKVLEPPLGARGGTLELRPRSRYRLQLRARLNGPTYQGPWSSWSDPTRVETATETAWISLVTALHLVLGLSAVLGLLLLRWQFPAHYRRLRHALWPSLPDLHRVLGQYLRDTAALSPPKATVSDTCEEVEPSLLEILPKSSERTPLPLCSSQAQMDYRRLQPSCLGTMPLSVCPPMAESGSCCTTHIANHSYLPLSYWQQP
Nature of the data set: Test Example 2: human c-Mpl-introduced Ba/F3 cell proliferative activity. The format is cell-based. Conditions: concentration exhibiting 30% proliferation; 100% = positive control (Example 315 of Patent Document 1) at 1 μM. A digest of the protocol:
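Ba/F3 cells stably expressing human c-Mpl seeded at 1×10^4 cells/well with test substance (100 nM to 10 μM final) in RPMI-1640/10% FBS, overnight at 37 °C. Cell number by WST-type kit absorbance at 450 nm after ~5 h; proliferation % relative to untreated (0%) and reference agonist at 1 μM (100%).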

The test system of data set [2] is rat isolated bladder. Nature of the data set: Test Example 3: effect on electrical field stimulation-induced contraction in rat isolated bladder. Conditions: 10 μM test substance; AUC of contraction, value before treatment = 100%; SD female rat bladder. The protocol: Test Example 3: Effect on Electrical Field Stimulation-Induced Contraction in Rat Isolated Bladder
As an effect on the nerve stimulation-dependent bladder contraction in in vitro, the effect of the Example compounds of the present invention in the electrical field stimulation-induced contraction of the rat isolated bladder was measured by the following method. That is, a bladder specimen having a width of about 2 mm and a length of about 10 mm in the longitudinal direction from the bladder isolated from a Sprague-Dawley (SD) female rat (Japan SLC, Inc.) was prepared. The prepared bladder specimen was suspended in an organ bath filled with 10 mL of a Krebs-Henseleite solution. The Krebs-Henseleite solution was aerated at 95% 02 and 5% CO2, and kept at 37° C. After carrying out stabilization at an initial tension of 1 g, the contraction was caused twice with 60 mM KCl. After stabilization of the specimen with a Krebs-Henseleite solution, the contraction was caused by carrying out electrical field stimulation at 20 V with an electrical stimulation device (Nihon Kohden) (a stimulation frequency of 8 Hz, a pulse width of 0.3 msec, and a stimulation time of 10 seconds). By repeating the transmural electrical stimulation at an interval of 2 minutes, a voltage was adjusted to obtain a contraction height of approximately 50% of the contractile response at 20 V. After the contraction by electrical field stimulation had been stabilized, 10 μL of the test substances dissolved in 100% dimethyl sulfoxide in advance (final concentrations of 3 μM, 10 μM, and 30 μM) was added thereto. The test substances were cumulatively administered at the following concentrations after the low-concentration contractile response had been stabilized. The response was taken into a personal computer through a PowerLab (registered trademark) (AD Instruments, Inc.), and analyzed by LabChart (registered trademark) (AD Instruments, Inc.). When the area under the response (area under curve, AUC) in each contraction response was calculated and the value before treatment with the test substance was taken as 100%, the enhancement rate (% of pre) of the isolated bladder contractions after treatment with the test substance was calculated.

Data set [3] addresses human muscarinic M3 receptor (Homo sapiens, UniProt P20309).

16 compounds from US9951060B2, “2-acylaminothiazole derivative or salt thereof” (ASTELLAS PHARMA INC., priority 2014, dated 2018) can be followed below.

Sequence of human muscarinic M3 receptor (P20309 whole entry): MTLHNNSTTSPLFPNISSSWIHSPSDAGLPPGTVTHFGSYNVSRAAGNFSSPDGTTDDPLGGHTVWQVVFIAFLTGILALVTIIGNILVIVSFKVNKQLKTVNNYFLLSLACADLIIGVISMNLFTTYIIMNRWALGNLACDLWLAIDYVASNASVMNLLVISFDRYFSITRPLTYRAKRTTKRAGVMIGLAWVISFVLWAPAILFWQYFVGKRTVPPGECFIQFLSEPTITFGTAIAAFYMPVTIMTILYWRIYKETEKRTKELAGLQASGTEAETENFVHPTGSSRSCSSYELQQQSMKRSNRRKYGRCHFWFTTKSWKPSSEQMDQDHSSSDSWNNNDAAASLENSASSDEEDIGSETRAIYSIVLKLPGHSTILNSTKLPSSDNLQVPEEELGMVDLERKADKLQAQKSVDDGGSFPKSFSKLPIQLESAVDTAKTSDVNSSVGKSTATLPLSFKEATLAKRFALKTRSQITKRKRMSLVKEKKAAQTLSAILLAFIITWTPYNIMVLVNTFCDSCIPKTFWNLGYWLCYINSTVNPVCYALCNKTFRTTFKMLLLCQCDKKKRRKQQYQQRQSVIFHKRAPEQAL

As to `Cc1cc(OC(F)(F)F)cc(-c2nc(NC(=O)c3cnc(N4CCN(C(C)C(=O)O)CC4)cn3)sc2CN2CCC[C@H]2C)c1` (stereo partly shown) [Example 48], in data set [1], the “human c-Mpl-introduced Ba/F3 cell proliferative activity EC30” value is over 10 µM. The “Enhancement rate (% of pre) of isolated bladder contractions” value in data set [2] is given as 143 % of pre. Besides, in data set [3], the “muscarinic M3 receptor-positive allosteric modulator activity, 1 μM (-fold shift)” value is listed as 27 -fold shift and the “muscarinic M3 receptor-positive allosteric modulator activity, 10 μM (-fold shift)” value is given as 113 -fold shift.

Turning to `C[C@@H]1CCCN1Cc1sc(NC(=O)c2cnc(N3CCN(CCC(=O)O)CC3)cn2)nc1-c1cc(F)cc(C(F)(F)F)c1` [Example 49], the “human c-Mpl-introduced Ba/F3 cell proliferative activity EC30” value in data set [1] is over 10 µM. For the same compound, the “Enhancement rate (% of pre) of isolated bladder contractions” value in data set [2] is 153 % of pre. Moreover, in data set [3], the “muscarinic M3 receptor-positive allosteric modulator activity, 1 μM (-fold shift)” value is given as 67 -fold shift and the “muscarinic M3 receptor-positive allosteric modulator activity, 10 μM (-fold shift)” value is given as 224 -fold shift.

Regarding `C[C@@H]1CCCN1Cc1sc(NC(=O)c2cnc(N3CCN(CCC(=O)O)CC3)cn2)nc1-c1cc(Cl)cs1` [Example 50], the “human c-Mpl-introduced Ba/F3 cell proliferative activity EC30” value in data set [1] turned out to be 2.3 µM. The “Enhancement rate (% of pre) of isolated bladder contractions” value in data set [2] is recorded as 183 % of pre. For the same compound, in data set [3], the “muscarinic M3 receptor-positive allosteric modulator activity, 1 μM (-fold shift)” value is listed as 108 -fold shift and the “muscarinic M3 receptor-positive allosteric modulator activity, 10 μM (-fold shift)” value is on record as 190 -fold shift.

Turning to `C[C@@H]1CCCN1Cc1sc(NC(=O)c2cnc(N3CCN(CC(=O)O)CC3)cn2)nc1-c1cc(Cl)cs1` [Example 51], the “human c-Mpl-introduced Ba/F3 cell proliferative activity EC30” value in data set [1] came out at 2.6 µM. Besides, the “Enhancement rate (% of pre) of isolated bladder contractions” value in data set [2] was 151 % of pre. Further, in data set [3], the “muscarinic M3 receptor-positive allosteric modulator activity, 1 μM (-fold shift)” value is 102 -fold shift and the “muscarinic M3 receptor-positive allosteric modulator activity, 10 μM (-fold shift)” value was 287 -fold shift.

Turning to `COc1cc(-c2nc(NC(=O)c3cnc(N4CCN(CCC(=O)O)CC4)cn3)sc2CN2CCC[C@H]2C)cc(C(F)(F)F)c1` [Example 52], the “human c-Mpl-introduced Ba/F3 cell proliferative activity EC30” value in data set [1] was over 10 µM. Besides, the “Enhancement rate (% of pre) of isolated bladder contractions” value in data set [2] is reported as 132 % of pre. Also, in data set [3], the “muscarinic M3 receptor-positive allosteric modulator activity, 1 μM (-fold shift)” value was 36 -fold shift and the “muscarinic M3 receptor-positive allosteric modulator activity, 10 μM (-fold shift)” value is 196 -fold shift.

Take `C[C@@H]1CCCN1Cc1sc(NC(=O)c2cnc(N3CCN(CCC(=O)O)CC3)cn2)nc1-c1ccc(F)c(C(F)(F)F)c1` [Example 60]: the “human c-Mpl-introduced Ba/F3 cell proliferative activity EC30” value in data set [1] amounted to 9.7 µM. Moreover, the “Enhancement rate (% of pre) of isolated bladder contractions” value in data set [2] is listed as 144 % of pre. In data set [3], the “muscarinic M3 receptor-positive allosteric modulator activity, 1 μM (-fold shift)” value is listed as 33 -fold shift and the “muscarinic M3 receptor-positive allosteric modulator activity, 10 μM (-fold shift)” value was 235 -fold shift.

Regarding `C[C@@H]1CCCN1Cc1sc(NC(=O)c2cnc(N3CCN(CC(=O)O)CC3)cn2)nc1-c1ccc(F)c(C(F)(F)F)c1` [Example 61], the “human c-Mpl-introduced Ba/F3 cell proliferative activity EC30” value in data set [1] turned out to be 1.3 µM. For the same compound, the “Enhancement rate (% of pre) of isolated bladder contractions” value in data set [2] is recorded as 176 % of pre. In data set [3], the “muscarinic M3 receptor-positive allosteric modulator activity, 1 μM (-fold shift)” value is 35 -fold shift and the “muscarinic M3 receptor-positive allosteric modulator activity, 10 μM (-fold shift)” value is 229 -fold shift.

With `CC(C(=O)O)N1CCN(c2cnc(C(=O)Nc3nc(-c4cc(F)cc(C(F)(F)F)c4)c(CN4CCC[C@H]4C)s3)cn2)CC1` (stereo partly shown) [Example 64], the “human c-Mpl-introduced Ba/F3 cell proliferative activity EC30” value in data set [1] is over 10 µM. Further, the “Enhancement rate (% of pre) of isolated bladder contractions” value in data set [2] is on record as 162 % of pre. Also, in data set [3], the “muscarinic M3 receptor-positive allosteric modulator activity, 1 μM (-fold shift)” value was 23 -fold shift and the “muscarinic M3 receptor-positive allosteric modulator activity, 10 μM (-fold shift)” value was 128 -fold shift.

With `CC[C@@H]1CCCN1Cc1sc(NC(=O)c2cnc(N3CCN(CCC(=O)O)CC3)cn2)nc1-c1cccc(C(F)(F)F)c1` [Example 65], in data set [1], the “human c-Mpl-introduced Ba/F3 cell proliferative activity EC30” value was over 10 µM. The “Enhancement rate (% of pre) of isolated bladder contractions” value in data set [2] is 127 % of pre. Further, in data set [3], the “muscarinic M3 receptor-positive allosteric modulator activity, 1 μM (-fold shift)” value was 24 -fold shift and the “muscarinic M3 receptor-positive allosteric modulator activity, 10 μM (-fold shift)” value is on record as 90 -fold shift.

As to `C[C@@H]1CCCN1Cc1sc(NC(=O)c2cnc(N3CCN(CCC(=O)O)CC3)cn2)nc1-c1cc(C2CC2)cc(C(F)(F)F)c1` [Example 67], the “human c-Mpl-introduced Ba/F3 cell proliferative activity EC30” value in data set [1] was over 10 µM. The “Enhancement rate (% of pre) of isolated bladder contractions” value in data set [2] was 116 % of pre. For the same compound, in data set [3], the “muscarinic M3 receptor-positive allosteric modulator activity, 1 μM (-fold shift)” value is reported as 40 -fold shift and the “muscarinic M3 receptor-positive allosteric modulator activity, 10 μM (-fold shift)” value is listed as 114 -fold shift.

With `COc1c(F)cc(-c2nc(NC(=O)c3cnc(N4CCN(CCC(=O)O)CC4)cn3)sc2CN2CCC[C@H]2C)cc1C(F)(F)F` [Example 72], in data set [1], the “human c-Mpl-introduced Ba/F3 cell proliferative activity EC30” value was over 10 µM. Besides, in data set [2], the “Enhancement rate (% of pre) of isolated bladder contractions” value is recorded as 157 % of pre. For the same compound, in data set [3], the “muscarinic M3 receptor-positive allosteric modulator activity, 1 μM (-fold shift)” value is reported as 31 -fold shift and the “muscarinic M3 receptor-positive allosteric modulator activity, 10 μM (-fold shift)” value was 152 -fold shift.

`C[C@@H]1CCCN1Cc1sc(NC(=O)c2cnc(N3CCN(CCC(=O)O)CC3)cn2)nc1-c1cc(Cl)cs1` [Example 82]: the “human c-Mpl-introduced Ba/F3 cell proliferative activity EC30” value in data set [1] was over 10 µM. Besides, in data set [2], the “Enhancement rate (% of pre) of isolated bladder contractions” value was 158 % of pre. Further, in data set [3], the “muscarinic M3 receptor-positive allosteric modulator activity, 1 μM (-fold shift)” value is 11 -fold shift and the “muscarinic M3 receptor-positive allosteric modulator activity, 10 μM (-fold shift)” value is recorded as 43 -fold shift.

In the case of `C[C@@H]1CCCN1Cc1sc(NC(=O)c2cnc(N3CCN(CCC(=O)O)[C@@H](C)C3)cn2)nc1-c1cc(C(F)(F)F)cs1` [Example 95], the “human c-Mpl-introduced Ba/F3 cell proliferative activity EC30” value in data set [1] worked out at 3 µM. Also, in data set [2], the “Enhancement rate (% of pre) of isolated bladder contractions” value is given as 150 % of pre. Moreover, in data set [3], the “muscarinic M3 receptor-positive allosteric modulator activity, 1 μM (-fold shift)” value is 91 -fold shift and the “muscarinic M3 receptor-positive allosteric modulator activity, 10 μM (-fold shift)” value is on record as 233 -fold shift.

Take `CCN(CC)Cc1sc(NC(=O)c2cnc(N3CCN(CCC(=O)O)CC3)cn2)nc1-c1cc(F)cc(C(F)(F)F)c1` [Example 109]: the “human c-Mpl-introduced Ba/F3 cell proliferative activity EC30” value in data set [1] is over 10 µM. Besides, the “Enhancement rate (% of pre) of isolated bladder contractions” value in data set [2] is on record as 183 % of pre. In data set [3], the “muscarinic M3 receptor-positive allosteric modulator activity, 1 μM (-fold shift)” value is recorded as 30 -fold shift and the “muscarinic M3 receptor-positive allosteric modulator activity, 10 μM (-fold shift)” value is on record as 191 -fold shift.

With `C[C@@H]1CC[C@@H](C)N1Cc1sc(NC(=O)c2cnc(N3CCN(CCC(=O)O)CC3)cn2)nc1-c1cc(F)cc(C(F)(F)F)c1` [Example 119], the “human c-Mpl-introduced Ba/F3 cell proliferative activity EC30” value in data set [1] was over 10 µM. Besides, the “Enhancement rate (% of pre) of isolated bladder contractions” value in data set [2] is 154 % of pre. Also, in data set [3], the “muscarinic M3 receptor-positive allosteric modulator activity, 1 μM (-fold shift)” value is 110 -fold shift and the “muscarinic M3 receptor-positive allosteric modulator activity, 10 μM (-fold shift)” value is recorded as 503 -fold shift.

In the case of `CCOc1ccc(-c2nc(NC(=O)c3cnc(N4CCN(CCC(=O)O)C[C@H]4C)cn3)sc2CN2CCC[C@H]2CC)cc1C(F)(F)F` [Example 133], the “human c-Mpl-introduced Ba/F3 cell proliferative activity EC30” value in data set [1] was over 10 µM. Also, the “Enhancement rate (% of pre) of isolated bladder contractions” value in data set [2] is recorded as 151 % of pre. In data set [3], the “muscarinic M3 receptor-positive allosteric modulator activity, 1 μM (-fold shift)” value is recorded as 30 -fold shift and the “muscarinic M3 receptor-positive allosteric modulator activity, 10 μM (-fold shift)” value is listed as 164 -fold shift.
